In patent publication US20220324835A1 (Nurix Therapeutics, Inc., priority 2018, published 2022):
pIC50, pKd: −log10 of the molar value.

Assays:
Cbl-b (residues 36-427) = Cbl-b (residues 36-427) (Homo sapiens, UniProt Q13191); assay: Cbl-b binding assay (SPR, Biacore T200); conditions: 20° C., 1:1 binding model
Protocol: SPR data was collected on a Biacore T200 (GE Healthcare) using a NeutrAvidin (Invitrogen) capture surface that was generated on a polycarboxylate hydrogel sensor chip of medium charge density (XanTec Bioanalytics GmbH) at 20° C. The surface was prepared using 20 mM HEPES, pH 7.5, 100 mM NaCl, 0.5 mM TCEP, 0.01% Triton X-100 as the immobilization buffer. Neutravidin was coupled to the sensor chip through EDC/NHS amine coupling. All steps were performed using a flow rate of 10 μl/min. First, the chip was preconditioned with a 3-min injection of 1 M NaCl, 0.1 M Borate followed by a 10-min equilibration in immobilization buffer. The surface was activated by a 5-min injection of 100 mM EDC/50 mM NHS. Next, 250 μg/mL NeutrAvidin buffered in 10 mM sodium acetate buffer, pH 5.0 was injected over the surface for 2 min. The surface was deactivated with 1 M Tris, pH 8.5 for 7 min then re-equilibrated in immobilization buffer for 7 min. […] Flow cell 1 served as a reference surface and was prepared without protein. All binding measurements were made in 20 mM HEPES, pH 7.5, 100 mM NaCl, 0.5 mM TCEP, 0.01% Triton X-100, 2% DMSO (referred as assay buffer) at 20° C. Compounds, prepared in assay buffer, were diluted from atop concentration of either 100 μM or 50 μM using either a 2- or 3-fold dilution scheme containing 8 or 10 points. Samples were injected for 50 s at 50 μl/min. Dissociation time varied from 90-180 s, depending on anticipated potency. The surface was regenerated by injection of 0.3 M NaCl, prepared in assay buffer for 20 s at 10 μl/min. Positive and negative control samples were run between each compound to monitor surface integrity.
Column marked with an asterisk (*) were tested as described above with assay buffer containing 50 mM NaCl instead of 100 mM NaCl and 30 nM Src kinase instead of 60 nM Src kinase. The resulting data for the Cbl-b binding assay was solvent corrected and double referenced prior to analysis. All data were globally fit to a steady-state affinity and kinetic binding model where applicable). Fit parameters were derived from a 1:1 binding model using the Biacore T200 Evaluation Software V2.0 (GE Healthcare) (Table 2).

Cbl-b [1] = biological target: T1, Cbl-b (Homo sapiens, UniProt Q13191); assay: Cbl-b activity assay (Cbl-b inhibition assay), TR-FRET of Cbl-b interaction with UbcH5B-Ub; assay type: biochemical; conditions: for pIC50: assay buffer with 100 mM NaCl, 60 nM Src kinase, read-out: Cbl-b activity IC50; for IC50: * assay buffer containing 50 mM NaCl instead of 100 mM NaCl and 30 nM Src kinase instead of 60 nM, read-out: Cbl-b activity IC50 (μM)*
In short: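 Compound-treated Cbl-b was incubated 1.5 h with Src kinase (60 nM final; 30 nM for asterisked values, which also used 50 mM instead of 100 mM NaCl), 1 mM ATP and 5 mM MgCl2. Binding to fluorescent Ub-loaded UbcH5B (C85K mutant) was then read by TR-FRET after 1 h more.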

T-cell [2] = assay: IL-2 secretion from T-cells co-stimulated with anti-CD3 and anti-CD28 antibody (Biological Example 2); assay type: cell-based, human; conditions: Homo sapiens, T-cell, fold change over baseline (anti-CD3/anti-CD28 stimulated T-cells without inhibitor), read-out: IL-2 secretion Anti-CD3/Anti-CD28 stimulation; for fold induction at 0.3 µM: 0.3 μM Cbl-b inhibitor; for fold induction at 1 µM: 1 μM Cbl-b inhibitor
In short: (§1)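 Values are fold-change over baseline: readings (IL-2 release, CD25 staining) from inhibitor-treated T-cells divided against untreated cells […]. No detailed procedure stated.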

Cbl-b [3] = biological target: T1, Cbl-b; assay: Cbl-b inhibition assay (Cbl-b activity assay, FRET, Biological Example 1; 100 mM NaCl, 60 nM Src kinase); assay type: biochemical; conditions: upper bound stated in text lists; read-out: IC50 values in the Cbl-b inhibition assay of Biological Example 1
In short: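 Here, the E2 UbcH5B, irreversibly linked to Bodipy-fluorescein ubiquitin, binds Cbl-b once Src kinase phosphorylates it; Cbl-b carries an N-terminal biotinylated Avi-tag captured by streptavidin-terbium. An absent FRET signal indicates inhibition.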

T-cell [4] = assay: CD25 cell surface staining on T-cells stimulated with anti-CD3 antibody alone (Biological Example 2); assay type: cell-based, human; conditions: Homo sapiens, T-cell; 1 μM Cbl-b inhibitor; fold change over baseline (anti-CD3/anti-CD28 stimulated T-cells without inhibitor); read-out: CD25 staining Anti-CD3 stimulation
T-cell [5] = assay: IL-2 secretion from T-cells stimulated with anti-CD3 antibody alone (Biological Example 2); assay type: cell-based, human; conditions: Homo sapiens, T-cell; 1 μM Cbl-b inhibitor; fold change over baseline (anti-CD3/anti-CD28 stimulated T-cells without inhibitor); read-out: IL-2 secretion Anti-CD3 stimulation
T-cell [6] = assay: CD25 cell surface staining on T-cells co-stimulated with anti-CD3 and anti-CD28 antibody (Biological Example 2); assay type: cell-based, human; conditions: Homo sapiens, T-cell, fold change over baseline (anti-CD3/anti-CD28 stimulated T-cells without inhibitor), read-out: CD25 staining Anti-CD3/Anti-CD28 stimulation; for fold induction at 0.3 µM: 0.3 μM Cbl-b inhibitor; for fold induction at 1 µM: 1 μM Cbl-b inhibitor
In short: as §1

T1 sequence (Q13191 36-427): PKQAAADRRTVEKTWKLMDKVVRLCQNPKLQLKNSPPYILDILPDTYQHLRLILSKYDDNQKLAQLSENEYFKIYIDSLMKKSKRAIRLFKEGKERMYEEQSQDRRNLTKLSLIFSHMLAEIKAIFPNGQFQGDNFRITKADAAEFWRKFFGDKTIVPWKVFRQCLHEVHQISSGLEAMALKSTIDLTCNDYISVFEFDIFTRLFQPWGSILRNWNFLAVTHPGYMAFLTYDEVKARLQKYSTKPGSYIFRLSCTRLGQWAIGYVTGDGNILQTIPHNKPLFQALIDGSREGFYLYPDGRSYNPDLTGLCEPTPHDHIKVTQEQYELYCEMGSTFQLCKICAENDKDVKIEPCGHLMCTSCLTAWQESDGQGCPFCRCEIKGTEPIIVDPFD
Cbl-b (residues 36-427), sequence (Q13191 36-427): as above

`C[C@@H](c1cccc(N2Cc3c(cccc3C(F)(F)F)C2=O)c1)[C@@H](F)c1nncn1C` (single isomer, unassigned) [Compound 474a] was tested, and the pKd (Cbl-b (residues 36-427)) was 6.52 to 7.00 and the pIC50 (Cbl-b [1]) was > 7.00.
`CC(Sc1nncn1C)c1cccc(NC(=O)c2cnc3ccccc3n2)c1` (centres unmarked) [Compound 17, N-(3-(1-((4-Methyl-4H-1,2,4-triazol-3-yl)thio)ethyl)phenyl)quinoxaline-2-carboxamide] showed a pKd (Cbl-b (residues 36-427)) of 5.00 to 5.52 and an IC50 (Cbl-b [1]) of 3 to 10 µM.
With `C[C@H](Sc1nncn1C)c1cccc(NC(=O)c2cccc(C(F)(F)F)c2)c1` [Compound 29, (S)-N-(3-(1-((4-Methyl-4H-1,2,4-triazol-3-yl)thio)ethyl)phenyl)-3-(trifluoromethyl)benzamide] the pKd (Cbl-b (residues 36-427)) was < 5.00 and the IC50 (Cbl-b [1]) was 3 to 10 µM.
With `CC(C)c1cccc(C(=O)Nc2cccc([C@H](C)Sc3nncn3C)c2)c1` [Compound 31, (S)-3-Isopropyl-N-(3-(1-((4-methyl-4H-1,2,4-triazol-3-yl)thio)ethyl)phenyl)benzamide] the pKd (Cbl-b (residues 36-427)) was < 5.00 and the IC50 (Cbl-b [1]) was 3 to 10 µM.
In the case of `CC(Sc1nncn1C)c1ccc(F)c(NC(=O)c2ccc3ccccc3n2)c1` (centres unmarked) [Compound 96, N-[2-fluoro-5-[1-[(4-methyl-1,2,4-triazol-3-yl)sulfanyl]ethyl]phenyl]quinoline-2-carboxamide], the pKd (Cbl-b (residues 36-427)) was < 5.00 and the IC50 (Cbl-b [1]) was 3 to 10 µM.
`COCC(Sc1nncn1C)c1cccc(NC(=O)c2cccc(C(F)(F)F)n2)c1` (centres unmarked) [Compound 133, N-[3-[2-methoxy-1-[(4-methyl-1,2,4-triazol-3-yl)sulfanyl]ethyl]phenyl]-6-(trifluoromethyl)pyridine-2-carboxamide] showed a pKd (Cbl-b (residues 36-427)) of 5.00 to 5.52 and an IC50 (Cbl-b [1]) of 3 to 10 µM.
`CCC(Sc1nncn1C)c1cccc(NC(=O)c2ccc3ccccc3n2)c1` (centres unmarked) [Compound 136, N-[3-[1-[(4-methyl-1,2,4-triazol-3-yl)sulfanyl]propyl]phenyl]quinoline-2-carboxamide] gave a pKd (Cbl-b (residues 36-427)) of 5.00 to 5.52 and an IC50 (Cbl-b [1]) of 3 to 10 µM.
For `CCC(Sc1nncn1C)c1cccc(NC(=O)c2cc3ccccc3cn2)c1` (centres unmarked) [Compound 137, N-[3-[1-[(4-methyl-1,2,4-triazol-3-yl)sulfanyl]propyl]phenyl]isoquinoline-3-carboxamide], the pKd (Cbl-b (residues 36-427)) was 5.00 to 5.52 and the IC50 (Cbl-b [1]) was 3 to 10 µM.
In the case of `C[C@H](Sc1nncn1C)c1cccc(NC(=O)c2cc3cc(OCC(=O)O)ccc3cn2)c1` [Compound 305, (S)-2-((3-((3-(1-((4-methyl-4H-1,2,4-triazol-3-yl)thio)ethyl)phenyl)-carbamoyl)isoquinolin-6-yl)oxy)acetic acid], the pKd (Cbl-b (residues 36-427)) was < 5.00 and the pIC50 (Cbl-b [1]) was 6.00 to 6.52.
With `Cn1cnnc1CC1(c2cccc(N3Cc4c(ccnc4C(F)(F)F)C3=O)c2)COC1` [Example 696, 2-(3-(3-((4-methyl-4H-1,2,4-triazol-3-yl)methyl)oxetan-3-yl)phenyl)-4-(trifluoromethyl)-2,3-dihydro-1H-pyrrolo[3,4-c]pyridin-1-one] the fold induction at 0.3 µM (T-cell [2]) was 1.01 to 2.5, the fold induction at 1 µM (T-cell [2]) was 1.01 to 2.5 and the pIC50 (Cbl-b [1]) was > 7.00. The pIC50 (Cbl-b [3]) was ≥ 7.00, the fold induction at 1 µM (T-cell [4]) was 0.601 to 0.8 and the fold induction at 1 µM (T-cell [5]) was < 0.05. The fold induction at 0.3 µM (T-cell [6]) was 1.01 to 1.3 and the fold induction at 1 µM (T-cell [6]) was 1.01 to 1.3.
`Cn1cnnc1CC1(c2cccc(N3Cc4c(cc(C(O)c5ccccc5)cc4C(F)(F)F)C3=O)c2)COC1` (centres unmarked) [Example 697, 6-(hydroxy(phenyl)methyl)-2-(3-(3-((4-methyl-4H-1,2,4-triazol-3-yl)methyl)oxetan-3-yl)phenyl)-4-(trifluoromethyl)isoindolin-1-one] was tested, and the fold induction at 0.3 µM (T-cell [2]) was 5 to 7.5, the fold induction at 1 µM (T-cell [2]) was > 7.5 and the pIC50 (Cbl-b [1]) was > 7.00. The pIC50 (Cbl-b [3]) was ≥ 7.00, the fold induction at 1 µM (T-cell [4]) was > 1 and the fold induction at 1 µM (T-cell [5]) was > 0.201. It also gave a fold induction at 0.3 µM (T-cell [6]) of 1.31 to 1.5 and a fold induction at 1 µM (T-cell [6]) of 1.31 to 1.5.
For `Cc1cc(C(=O)Nc2cc(C3CC3)cc(C3(Cc4nncn4C)COC3)c2)nc(C2CC2)n1` [Example 698, 2-cyclopropyl-N-(3-cyclopropyl-5-(3-((4-methyl-4H-1,2,4-triazol-3-yl)methyl)oxetan-3-yl)phenyl)-6-methylpyrimidine-4-carboxamide], the fold induction at 0.3 µM (T-cell [2]) was 2.51 to 5, the fold induction at 1 µM (T-cell [2]) was > 7.5 and the pIC50 (Cbl-b [1]) was > 7.00. For the same molecule, the pIC50 (Cbl-b [3]) was ≥ 7.00, the fold induction at 1 µM (T-cell [4]) was > 1 and the fold induction at 1 µM (T-cell [5]) was > 0.201. For the same molecule, the fold induction at 0.3 µM (T-cell [6]) was 1.01 to 1.3 and the fold induction at 1 µM (T-cell [6]) was 1.31 to 1.5.
With `Cn1cnnc1CC1(c2cccc(NC(=O)c3cc(CN4CC[C@H](F)C4)nc(C(F)(F)F)n3)c2)COC1` [Example 699, (S)-6-((3-fluoropyrrolidin-1-yl)methyl)-N-(3-(3-((4-methyl-4H-1,2,4-triazol-3-yl)methyl)oxetan-3-yl)phenyl)-2-(trifluoromethyl)pyrimidine-4-carboxamide] the fold induction at 0.3 µM (T-cell [2]) was 1.01 to 2.5, the fold induction at 1 µM (T-cell [2]) was 2.51 to 5 and the pIC50 (Cbl-b [1]) was > 7.00. The pIC50 (Cbl-b [3]) was ≥ 7.00, the fold induction at 1 µM (T-cell [4]) was 0.801 to 1 and the fold induction at 1 µM (T-cell [5]) was 0.051 to 0.1. The fold induction at 0.3 µM (T-cell [6]) was 1.01 to 1.3 and the fold induction at 1 µM (T-cell [6]) was 1.01 to 1.3.
Work on `Cn1cnnc1OC1(c2cccc(N3Cc4c(cc(CN5CCC(F)CC5)cc4C(F)(F)F)C3=O)c2)COC1` [Example 700, 6-((4-fluoropiperidin-1-yl)methyl)-2-(3-(3-((4-methyl-4H-1,2,4-triazol-3-yl)oxy)oxetan-3-yl)phenyl)-4-(trifluoromethyl)isoindolin-1-one] yielded a fold induction at 0.3 µM (T-cell [2]) of 1.01 to 2.5, a fold induction at 1 µM (T-cell [2]) of 2.51 to 5 and a pIC50 (Cbl-b [1]) of 6.52 to 7.00. The pIC50 (Cbl-b [3]) was ≥ 6.52, the fold induction at 1 µM (T-cell [4]) was 0.601 to 0.8 and the fold induction at 1 µM (T-cell [5]) was < 0.05. For the same molecule, the fold induction at 0.3 µM (T-cell [6]) was 1.01 to 1.3 and the fold induction at 1 µM (T-cell [6]) was 1.31 to 1.5.
In the case of `COc1cccc2c1CN(Cc1cc3c(c(C(F)(F)F)c1)CN(c1cccc(C4(Cc5nncn5C)COC4)c1)C3=O)C2` [Example 702, 6-((4-methoxyisoindolin-2-yl)methyl)-2-(3-(3-((4-methyl-4H-1,2,4-triazol-3-yl)methyl)oxetan-3-yl)phenyl)-4-(trifluoromethyl)isoindolin-1-one], the fold induction at 0.3 µM (T-cell [2]) was 5 to 7.5, the fold induction at 1 µM (T-cell [2]) was > 7.5 and the pIC50 (Cbl-b [1]) was > 7.00. For the same molecule, the pIC50 (Cbl-b [3]) was ≥ 7.00, the fold induction at 1 µM (T-cell [4]) was > 1 and the fold induction at 1 µM (T-cell [5]) was > 0.201. It also gave a fold induction at 0.3 µM (T-cell [6]) of 1.51 to 1.75 and a fold induction at 1 µM (T-cell [6]) of 1.51 to 1.75.
`Cn1cnnc1CC1(c2cccc(N3Cc4c(cc(CN5CCOC6(CCC6)C5)cc4C(F)(F)F)C3=O)c2)COC1` [Example 703, 6-((5-oxa-8-azaspiro[3.5]nonan-8-yl)methyl)-2-(3-(3-((4-methyl-4H-1,2,4-triazol-3-yl)methyl)oxetan-3-yl)phenyl)-4-(trifluoromethyl)isoindolin-1-one] was tested, and the fold induction at 0.3 µM (T-cell [2]) was > 7.5, the fold induction at 1 µM (T-cell [2]) was > 7.5 and the pIC50 (Cbl-b [1]) was > 7.00. For the same molecule, the pIC50 (Cbl-b [3]) was ≥ 7.00, the fold induction at 1 µM (T-cell [4]) was > 1 and the fold induction at 1 µM (T-cell [5]) was > 0.201. It also gave a fold induction at 0.3 µM (T-cell [6]) of 1.01 to 1.3 and a fold induction at 1 µM (T-cell [6]) of 1.01 to 1.3.
